Assay results as given in US20060029995A1, “Novel class of metacaspases” (Vlaams Interuniversitair Instituut Voor Biotechnologie VZW, priority 2003, published 2006).
Where two headings read alike, the source gives them in different places. Starred links: 1 amine or outer side, 2 acyl side, 3 side chain; linkers in the order of their positions; H or OH if unused. Non-standard residues stand in square brackets, D forms with d. Residues, ends and D or L forms follow the SMILES beside them. *: point of attachment. Sta = CC(C)C[C@H](N)[C@@H](O)CC(=O)O; Isovaleryl = CC(C)CC(=O)*; code Z = not defined here; CO = O=C([*:1])[*:2]; CH2F = FC*

Biological target: T1, Atmc9 (Arabidopsis thaliana, UniProt Q9FYE1)
T1 construct: it indeed consists of amino acids 184 to 325 (calculated mass 15427 Da); made in house; host or cells: E. coli BL21(DE3), pDEST17, Ni-NTA purified
T1 sequence (Q9FYE1 1-183 limits assumed): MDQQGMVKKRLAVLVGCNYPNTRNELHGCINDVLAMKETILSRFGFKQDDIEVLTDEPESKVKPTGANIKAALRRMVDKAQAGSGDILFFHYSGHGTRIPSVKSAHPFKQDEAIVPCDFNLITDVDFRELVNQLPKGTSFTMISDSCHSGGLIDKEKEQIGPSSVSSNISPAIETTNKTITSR
T1 sequence (Q9FYE1 184-325 limits assumed): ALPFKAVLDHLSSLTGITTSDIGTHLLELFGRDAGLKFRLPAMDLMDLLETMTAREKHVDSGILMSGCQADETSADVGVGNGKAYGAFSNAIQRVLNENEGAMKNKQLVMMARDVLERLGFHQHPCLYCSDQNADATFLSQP
Format: biochemical
Settings: for inhibition / inactivation of Atmc9: no concentration stated; for inhibition of Atmc9 activity: at the millimolar range
Method: Assays were performed in 150 μl with 400 ng of purified Atmc9 and 50 μM substrate in an optimized metacaspase 9 assay buffer (50 mM MES pH 5.3, 10% (w/v) sucrose, 0.1% (w/v) 3-[(3-cholamidopropyl)dimethylammonio]-1-propanesulfonate [CHAPS], 10 mM DTT). Time-dependent release of free amido-4-methylcoumarin (AMC) was measured on a Cytofluor 4000 fluorescence microplate reader (PerSeptive Biosystems, Farmingham, Md., USA).
We also assessed the sensitivity of Atmc9 for several protease inhibitors, chelating agents, metal ions, and stabilizing agents in the GKR-ase assay (Table 2). […] To optimize the assay conditions for Atmc9 activity, several stabilizing agents were tested.
Percentage of the activity of recombinant Atmc9 in 50 mM MES (pH 5.3) and 10 mM DTT.

Which “inhibition / inactivation of Atmc9” value does the source give for CC(C)C[C@H](NC(=O)[C@H]1O[C@@H]1C(=O)O)C(=O)NCCCCN=C(N)N (relative stereo) [E-64, L-trans-epoxysuccinyl-leucylamide-(4-guanido)-butane] here?
The value was “no significant blocking capacity”.

What about the “Activity (%)” value (pH 5.3) of the same molecule?
Its value is 92%.

For CC(C)[C@H](NC(=O)[C@H](CCCNC(=N)N)NC(=O)N[C@@H](Cc1ccccc1)C(=O)O)C(=O)N[C@H](C=O)CCCNC(=N)N [Antipain] ({Phe-CO}-Arg-Val-Arg-aldehyde), which “Activity (%)” value (pH 5.3) is on record?
The value was 13%.

N=C(N)c1ccccc1 [Benzamidine] was tested. Which “inhibition of Atmc9 activity” value did it give?
Its value is “inhibited”.

And the “Activity (%)” value (pH 5.3)?
The value was 22%.

How did the “Activity (%)” value (pH 5.3) turn out when C[C@H](CCC(=O)NCCC[N+](C)(C)CCCS(=O)(=O)[O-])[C@H]1CC[C@H]2[C@@H]3[C@H](O)C[C@@H]4C[C@H](O)CC[C@]4(C)[C@H]3C[C@H](O)[C@]12C [CHAPS, 3-[(3-cholamidopropyl)dimethylammonio]-1-propanesulfonate] was run?
Its value is 127%.

Which results are given for CC(C)C[C@H](NC(=O)[C@@H](NC(=O)N[C@@H](Cc1ccccc1)C(=O)O)[C@@H]1CCN=C(N)N1)C(=O)N[C@H](C=O)Cc1ccccc1 [Chymostatin]?
inhibition / inactivation of Atmc9: weak inhibitors; Activity (%) (pH 5.3): 33%

What does the source list for NC(=O)CI [Iodoacetamide]?
inhibition of Atmc9 activity: inhibited; Activity (%) (pH 5.3): 8%

How did the “inhibition of Atmc9” value (at concentrations as low as 1 μM) turn out when CC(=O)N[C@@H](CC(C)C)C(=O)N[C@@H](CC(C)C)C(=O)N[C@H](C=O)CCCNC(=N)N [Leupeptin] was run?
The value was “strongly inhibited”.

What about the “Activity (%)” value (pH 5.3) of the same molecule?
Its value is 1%.

Which results are given for O=S(=O)(F)Cc1ccccc1 [PMSF]?
inhibition / inactivation of Atmc9: no significant blocking capacity; Activity (%) (reagent 1 mM, % of activity of recombinant Atmc9 in 50 mM MES pH 5.3, 10 mM DTT): 86%

Which “inhibition / inactivation of Atmc9” value does the source give for CC(C)CC(=O)N[C@H](C(=O)N[C@H](C(=O)N[C@@H](CC(C)C)[C@@H](O)CC(=O)N[C@@H](C)C(=O)N[C@@H](CC(C)C)[C@@H](O)CC(=O)O)C(C)C)C(C)C [Pepstatin] (Isovaleryl-VV[Sta]A[Sta]-OH) here?
The value was “no significant blocking capacity”.

And the “Activity (%)” value (pH 5.3)?
The value was 97%.

For OC[C@H]1O[C@@](CO)(O[C@H]2O[C@H](CO)[C@@H](O)[C@H](O)[C@H]2O)[C@@H](O)[C@@H]1O [Sucrose], which “Activity (%)” value (pH 5.3) is on record?
The value was 121%.

How did the “inhibition / inactivation of Atmc9” value turn out when Cc1ccc(S(=O)(=O)N[C@@H](Cc2ccccc2)C(=O)CCl)cc1 [TPCK, N^□-tosyl-L-phenylalanyl-chloromethyl ketone] was run?
The value was “weak inhibitors”.

And the “Activity (%)” value (pH 5.3)?
The value was 35%.

What does the source list for Aprotinin?
inhibition / inactivation of Atmc9: no significant blocking capacity; Activity (%) (pH 5.3): 96%

How did the “Activity (%)” value (pH 5.3) turn out when “Z-DEVD-cmk: caspase inhibitor; cmk, chloromethyl ketone” was run?
The value was 94%.

How did the “Activity (%)” value (pH 5.3) turn out when “Z-VAD-fmk: caspase inhibitor; fmk, fluoromethyl ketone ({code Z}-Val-Ala-Asp-CH2F; reading uncertain; also: printed as Z-VAD-fmk)” was run?
Its value is 87%.

How did the “Activity (%)” value (pH 5.3) turn out when “Z-YVAD-cmk: caspase inhibitor; cmk, chloromethyl ketone” was run?
Its value is 100%.

B1: Soybean trypsin inhibitor: protease inhibitor (protein)
chain: DFVLDNEGNPLENGGTYYILSDITAFGGIRAAPTGNERCPLTVVQSRNELDKGIGTIISSPYRIRFIAEGHPLSLKFDSFAVIMLCVGIPTEWSVVEDLPEGPAVKIGENKDAMDGWFRLERVSDDEFNNYKLVFCPQQAEDDKCGDIGISIDHDDGTRRLVVSKNKPLVVQFQKLDKESL
Which “inhibition / inactivation of Atmc9” value does the source give for B1 here?
Its value is “no significant blocking capacity”.

And the “Activity (%)” value (pH 5.3)?
Its value is 73%.
